Columns and labels:
[1] = biological target: T1, ERRα ligand binding domain (ERRα-LBD) (Homo sapiens, UniProt P11474); experiment: ERRα AlphaScreen Assay; assay type: biochemical; conditions: disruption of binding of ERRα-LBD protein to biotin-PGC1α-3 co-activator peptide; read-out: mean pIC50 (converted)
T1 construct: made in house; host or cells: E. coli
T1 sequence (P11474 193-421 limits assumed): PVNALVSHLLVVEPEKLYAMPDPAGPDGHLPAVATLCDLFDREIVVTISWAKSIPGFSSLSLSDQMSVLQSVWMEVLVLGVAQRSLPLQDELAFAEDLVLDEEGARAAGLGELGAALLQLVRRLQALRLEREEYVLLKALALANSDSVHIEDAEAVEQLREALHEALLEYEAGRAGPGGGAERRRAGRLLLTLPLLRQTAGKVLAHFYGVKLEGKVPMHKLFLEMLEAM
Method in brief: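 E. coli-expressed 6His-SUMO-ERRα-LBD (0.81 nM) incubated with compound and donor/acceptor beads 1 h, then 2 h with 15 nM biotin-PGC1α-3 peptide (aa 202–220); room temperature, Tris pH 7.5 buffer with TCEP, 1% DMSO, triplicates. Loss of co-activator binding read by AlphaScreen; four-parameter dose-response fit.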

full length ERRα = biological target: T2, full length ERRα (Homo sapiens, UniProt P11474); experiment: Full Length ERRα Reporter Gene Assay; assay type: cell-based; conditions: SK-BR-3 cells, ERRα-RE luciferase reporter, overnight incubation; read-out: mean pIC50 (converted)
T2 construct: an over-expression construct coding full length ERRα; expressed in transfected cells; host or cells: SK-BR-3 cells, transient co-transfection of pLP2124 (pcDNA3.1/Hygro(+) background) and reporter pLP2175
T2 sequence (P11474 1-423): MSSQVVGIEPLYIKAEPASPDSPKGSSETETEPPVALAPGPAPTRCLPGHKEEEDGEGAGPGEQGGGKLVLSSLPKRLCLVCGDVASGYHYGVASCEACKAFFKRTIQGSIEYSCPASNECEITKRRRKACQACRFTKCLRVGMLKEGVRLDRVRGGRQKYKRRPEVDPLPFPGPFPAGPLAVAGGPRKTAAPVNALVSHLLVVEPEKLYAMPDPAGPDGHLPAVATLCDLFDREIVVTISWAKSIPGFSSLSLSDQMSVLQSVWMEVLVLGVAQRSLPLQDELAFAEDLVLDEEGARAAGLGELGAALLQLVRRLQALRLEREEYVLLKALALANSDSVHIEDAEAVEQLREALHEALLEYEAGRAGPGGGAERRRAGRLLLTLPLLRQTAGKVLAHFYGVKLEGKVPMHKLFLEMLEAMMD
Excerpt: A method was established to quantitatively screen the potency of compounds with inverse agonistic activity on the nuclear receptor ERRα of the human species. The assay allows intra-cellular screening of ERRα inverse agonists in SK-BR-3 cells using an over-expression construct coding full length ERRα and a reporter construct containing an ERRα Response Element (RE) and a luciferase gene for read out. The activity is expressed in logIC50 values and can be used to determine SAR of compound families or to de-select compounds.
In this assay, reporter cells are obtained by transient co-transfection of two constructs in SK-BR-3 cells using standard transfection techniques. The first construct contains a response element of the nuclear receptor ERRα (Plasmid pLP2175, Reporter construct ERRα-RE/luc2P, cloned variant of ERRα_v2_synthRE, Switchgear Genomics, Catalog Number S900089). This sequence drives the transcription of the luciferase reporter gene in response to binding of an ERRα protein encoded by the second construct (Plasmid pLP2124: full length ERRα expression construct using pcDNA3.1/Hygro(+) as background, Invitrogen Catalog Number V87020).
The day after transfection, cells were plated into 96 well plates, the test compound was added and the plates were incubated overnight. Subsequently, the firefly luciferase activity was quantified using luciferase detection reagent and luminescence readout.
Transfection is performed on pre-seeded SK-BR-3 cells in a T175 flask. One transfected T175 flask is sufficient for seeding 3 to 4 MW96 plates the next day, depending on the confluency of the transfected cells.
Two different media are used in this protocol for cell treatment: 1) Culture medium, i.e. McCoy's 5a with phenol red (BioWhittaker Supplier Number 12-688F), 10% FBS and 1× Penstrep.; and, 2) Assay medium, i.e. McCoy's 5a Medium phenol red free (HyClone Product Code SH30270.01) with 2% Charcoal Stripped FBS and 1× Penstrep. Compound dilutions are prepared in assay medium.
Cells are seeded at least 2 days in advance to allow the cells to adhere well to flask before transfection. Cells should be 50-80% confluent at the day of transfection.
SKBR3 cells were transfected with the transcriptional reporter construct pLP2175 and the ERRα expression construct pLP2124 (as described above).
68 μL of Lipofectamine LTX transfection reagent (Invitrogen Catalog Number 15338-100) was added dropwise to 8.9 ml Opti-MEM I Reduced Serum Medium (Gibco Catalog Number 51985-026) and incubated at room temperature for 5 to 20 minutes. 8.9 ml of this reagent mixture was added to 22 μg pLP2175+22 μg pLP2124 (ratio 1:1 and total volume 10 ml), and incubated at room temperature for 25 minutes.
10 minutes before adding the transfection mix to SKBR3 cells in a T175 flask, the culture medium was refreshed with 20 mL culture medium. Subsequently, the 10 mL DNA-Opti-MEM-Lipofectamine mixture was gently added to the cells, followed by overnight (16-24 hours) incubation at 37° C. and 5% CO2.
To harvest SKBR3 cells from a T175 flask, first the medium was removed. Subsequently, cells were washed with Phosphate Buffered Saline (PBS) (Lonza), after which the PBS was removed. To dissociate the cells, 2 ml of TrypLE Express (I nvitrogen) was added to the flask, followed by incubation at 37° C. for 5 minutes. The flask was tapped until cells were detached from the bottom. Cells were collected in 8 mL of culture medium (McCoy's 5a, 10% FBS, penstrep), to achieve a single cell suspension. After cell count, cells were spun down for 5 minutes at 300 g. Next cell pellets were re-suspended to 25000 cells/80 μl assay medium (McCoy's 5a phenol red free, 2% charcoal stripped FBS, penstrep).
For compound screening, the cells were harvested (as described above). 80 μL of cell suspension (25,000 cells) was plated per well into a white, flat bottom, tissue culture treated, 96 well screening plates (Greiner). […]

B16F10 melanoma = experiment: B16F10 Melanoma Syngeneic Mouse Model; assay type: in vivo; conditions: 30 mpk p.o., q.d., B16F10 allograft in C57BL/6 mice
Procedure: Example inhibitor 80 was tested for its ability to inhibit tumor growth in a B16F10 melanoma syngeneic mouse model. Cell line and tumor model: B16F10 melanoma cell line derived allograft model in C57BL/6 mice.
Mouse B16F10 melanoma cells were sourced from American Type Culture Collection (ATCC), USA. Cells were grown in DMEM (Invitrogen, Catalogue No. 31600-034) supplemented with 10% FBS (Invitrogen, Catalogue No. 10438-026), and 1% penicillin streptomycin (Thermo Fisher Scientific, Catalogue No. 15140-122). To establish allografts, the cells were harvested by trypsinization when they reach around 70 to 80% confluence and 0.1 million B16F10 cells were suspended in 50 μl of serum free medium and mixed at 1:1 ratio with matrigel before implanting subcutaneously into the dorsal right flank of mice using a 1 mL BD syringe attached to a 24-gauge needle.
B16F10 tumor grafts were measured after 5 days of cell inoculation once they became palpable. […]
Tumor dimensions—length (I) and breadth (b)—were measured by caliper on the day of animal randomization based on tumor volume (Day 1) and thrice weekly thereafter until study termination. Tumor volumes were calculated using the formula b^2*I*0.52 where I=length, b=breadth (Dusan Djokovic et al., BMC Cancer, 2010, 10:641). Tumor growth inhibition was calculated after normalizing the tumor volume on a given day to that on Day 1. […]

Row | IC50 [1] [nM] | IC50 (full length ERRα) [nM] | Structure (SMILES) | Tumor Volume (mm^3) Day 13 (B16F10 melanoma) [mm^3] | Tumor Growth Inhibition (%) (B16F10 melanoma; Day 13)
1 | 10 to 100 | ≤ 316 | COc1cc(C2CC(=O)Nc3n[nH]cc32)ccc1Oc1ccccc1C(C)(C)C (stereo not drawn) [Example 10, 4-[4-(2-tert-butylphenoxy)-3-methoxyphenyl]-2H,4H,5H,6H,7H-pyrazolo[3,4-b]pyridin-6-one] |  | 
2 | ≤ 10 | ≤ 316 | COC(=O)c1ccc(Oc2ccc(C3CC(=O)Nc4n[nH]cc43)cc2OC)c(C(C)(C)C)c1 (stereo not drawn) [Example 35, methyl 3-tert-butyl-4-(2-methoxy-4-{6-oxo-2H,4H,5H,6H,7H-pyrazolo[3,4-b]pyridin-4-yl}phenoxy)benzoate] |  | 
3 | ≤ 10 |  | COc1cc(C2CC(=O)Nc3n[nH]cc32)ccc1Oc1cc(C(F)(F)F)cc(C(F)(F)F)c1 (single isomer, unassigned; (-)) [Example 80, (−)-4-{4-[3,5-bis(trifluoromethyl)phenoxy]-3-methoxyphenyl}-2H,4H,5H,6H,7H-pyrazolo[3,4-b]pyridin-6-one] | 684 ± 82 | 64
4 | ≤ 10 | ≤ 316 | CCc1ccc(Oc2ccc(C3CC(=O)Nc4n[nH]cc43)cc2OC)c(C(C)(C)C)c1 (stereo not drawn) [Example 32, 4-[4-(2-tert-butyl-4-ethylphenoxy)-3-methoxyphenyl]-2H,4H,5H,6H,7H-pyrazolo[3,4-b]pyridin-6-one] |  | 
5 | ≤ 10 | ≤ 316 | COc1cc(C2CC(=O)Nc3n[nH]cc32)ccc1Oc1ccc(C#N)cc1C(C)(C)C (stereo not drawn) [Example 39, 3-tert-butyl-4-(2-methoxy-4-{6-oxo-2H,4H,5H,6H,7H-pyrazolo[3,4-b]pyridin-4-yl}phenoxy)benzonitrile] |  | 
6 | ≤ 10 | ≤ 316 | COc1cc(C2CC(=O)Nc3n[nH]cc32)ccc1Oc1ccc(C(C)(C)C)cc1C(C)(C)C (stereo not drawn) [Example 37, 4-[4-(2,4-di-tert-butylphenoxy)-3-methoxyphenyl]-2H,4H,5H,6H,7H-pyrazolo[3,4-b]pyridin-6-one] |  | 
7 | ≤ 10 | ≤ 316 | CCc1ccc(Oc2ccc(-c3cc(=O)[nH]c4n[nH]cc34)cc2OC)c(C(C)(C)C)c1 [Example 67, 4-[4-(2-tert-butyl-4-ethylphenoxy)-3-methoxyphenyl]-2H,6H,7H-pyrazolo[3,4-b]pyridin-6-one] |  | 
8 | ≤ 10 | ≤ 316 | COc1cc(-c2cc(=O)[nH]c3n[nH]cc23)ccc1Oc1ccc(Br)cc1C(C)(C)C [Example 70, 4-[4-(4-bromo-2-tert-butylphenoxy)-3-methoxyphenyl]-2H,6H,7H-pyrazolo[3,4-b]pyridin-6-one] |  | 
9 | ≤ 10 | ≤ 316 | COc1cc(C2CC(=O)Nc3n[nH]cc32)ccc1Oc1ccc(Br)cc1C(C)(C)C (stereo not drawn) [Example 33, 4-[4-(4-bromo-2-tert-butylphenoxy)-3-methoxyphenyl]-2H,4H,5H,6H,7H-pyrazolo[3,4-b]pyridin-6-one] |  | 
10 | 10 to 100 | ≤ 316 | COc1cc(C2CC(=O)Nc3n[nH]cc32)ccc1Oc1cc(C(F)(F)F)cc(C(F)(F)F)c1 (racemic) [Example 43, 4-{4-[3,5-bis(trifluoromethyl)phenoxy]-3-methoxyphenyl}-2H,4H,5H,6H,7H-pyrazolo[3,4-b]pyridin-6-one] |  | 
11 | ≤ 10 | ≤ 316 | COc1cc(C2CC(=O)Nc3n[nH]cc32)ccc1Oc1cc(C)cc(C(F)(F)F)c1 (single isomer, unassigned; (-)) [Example 84, (−)-4-{3-methoxy-4-[3-methyl-5-(trifluoromethyl)phenoxy]phenyl}-2H,4H,5H,6H,7H-pyrazolo[3,4-b]pyridin-6-one] |  | 
12 | ≤ 10 | ≤ 316 | COc1cc(C2CC(=O)Nc3n[nH]cc32)ccc1Oc1cc(C(F)F)cc(C(F)(F)F)c1 (single isomer, unassigned; (-)) [Example 86, (−)-4-{4-[3-(difluoromethyl)-5-(trifluoromethyl)phenoxy]-3-methoxyphenyl}-2H, 4H,5H,6H,7H-pyrazolo[3,4-b]pyridin-6-one] |  | 
13 | 10 to 100 | ≤ 316 | COc1cc(C2CC(=O)Nc3n[nH]cc32)ccc1Oc1ccccc1S(F)(F)(F)(F)F (stereo not drawn) [Example 40, 4-{3-methoxy-4-[2-(pentafluoro-λ^6-sulfanyl)phenoxy]phenyl}-2H,4H,5H,6H,7H-pyrazolo[3,4-b]pyridin-6-one] |  | 
